Measurements reported in patent US12502393B2, “Dual mode of action soluble guanylate cyclase activators and phosphodiesterase inhibitors and uses thereof” (TOPADUR PHARMA AG, priority 2018, dated 2025).
Like-named read-outs stand apart in the source and are kept apart here.

Legend:
[1] = Human plasma protein binding; type: in vitro ADME; conditions: for fraction unbound: human
Procedure: An aliquot of 200 μL of human plasma containing test compound was spiked into donor well (red chamber) of the insert. 350 μL of PBS was spiked into receiver well (white chamber) of the insert.
The samples were matrix equilibrated with opposite matrix (25 μL of plasma/buffer sample was matched with 25 μL of blank buffer/plasma). Matrix matched samples were precipitated with 200 μL of acetonitrile containing internal standard. Samples were vortexed at 1000 rpm for 5 min and centrifuged at 4000 rpm for 10 min. Supernatant was separated, diluted 2 fold with water and analysed in LC-MS/MS. (Table 2).

[2] = tested on: Human Trabecular Meshwork Cells; experiment: Cellular cGMP assay in human trabecular meshwork cells; type: cell-based; conditions: HTMC, 10 μM Riociguat; for Concentration (nM) for 3-fold or 2-fold* cGMP increase vs Baseline: 2-fold increase (values marked *); for Ratio Maximum cGMP increase vs Baseline: 5 mM GSH, incubation 2 h
[3] = tested on: Human Platelets; experiment: Total cGMP in human platelets; type: cell-based; conditions: for Ratio Maximum cGMP increase vs Baseline: 1 μM riociguat and 100 nM BAY 190954, incubation 2 h; for Concentration (nM) for 3-fold cGMP or 2-fold* increase vs Baseline: 2-fold increase (values marked *), 1 μM riociguat, 100 nM BAY 190954
Procedure: Effects of test and reference compounds on total cGMP in human platelets were investigated as described by Dunkern and Hatzelmann (Cell Signal. 17: 331-9, 2005) with modifications. Briefly, buffy coats (acquired form SRK Blutspende Zurich) were 4-fold diluted in 150 mM sodium chloride solution containing 0.9% sodium citrate and centrifuged at 200 g for 10 min. The resulting platelet-rich plasma was supplemented with a 1/10 volume of ACD solution (85 mM sodium citrate, 111 mM D-glucose, 71 mM citric acid, pH 4.4) and apyrase (Sigma AG) to a final concentration of 2 U/ml. After another centrifugation (1400 g, 10 min) the cellular pellet was resuspended in Ca2+/Mg2+-free Hepes-Tyrode buffer (134 mM NaCl, 12 mM NaHCO3, 2.9 mM KCl, 0.36 mM NaH2PO4, 5 mM HEPES, 5 mM glucose, 0.5% (w/v) bovine serum albumin, pH 7.4) and platelets were counted.
Platelets were used at 9×10^7 cells in 100 μl per well and after adding test and reference compounds the incubation volume was 200 μl per well in Hepes-Tyrode. Experiments in platelets were done in presence of 1 μM riociguat and 100 nM BAY 190954 (PDE2 inhibitor) (Lucerna Chem AG) and test/reference compounds were added after a preincubation time of 15 min. At the end of the incubation time (see below) the reaction was terminated by adding 20 μl of 2N HCl per well. Following a 20 sec on a plate shaker (300 rpm) the plate was left for 15 min and then centrifuged at 1000×g for 5 min. Supernatants were stored at −80° C.
cGMP was determined by a commercially available ELISA kit (Direct cGMP ELISA kit, Enzo Life Sciences AG, Lauren, Switzerland) with a lower detection limit of 0.08 pmol/ml using the acetylation protocol following manufacturer's instructions. Results are given as the means from at least two independent experiments each in triplicate.
To study concentration-dependent effects on total cGMP test and reference compounds were investigated from 0.1 nM to 1 μM in half-logarithmic steps with an incubation time of 2 h. To examine the time course the incubation times were (min) 10, 30, 60, 90, 120 at 1 μM of test or reference compound.
Compounds were diluted from stock solutions in DMSO. The final concentration of DMSO in all wells including the vehicle controls was 0.2% for human trabecular meshwork and rat aortic smooth muscle cells and 0.3% for platelets.
From time course experiments, the time to half of the maximum cGMP increase with 1 μM of test compound has been extrapolated (t0.5max).

[4] = target: T1, recombinant human (rh) PDE5A (Homo sapiens, UniProt O76074); experiment: Phosphodiesterase-5 activity assay (radiometric SPA); type: biochemical; conditions: rhPDE5A1, 0.5 μM cGMP, 20 min at 37° C.
T1 construct: GST; purchased SIGMA E9034

[5] = read-out: % Unbound in human plasma
[6] = read-out: % Bound in human plasma (converted)

For `CCCc1nc(C)c2c(=O)[nH]c(-c3cc(S(=O)(=O)N4CCC(C(O)(CCO)CCO[N+](=O)[O-])CC4)ccc3OCC)nn12` (stereo not drawn) [Compound 2g, 3-(1-((4-ethoxy-3-(5-methyl-4-oxo-7-propyl-3,4-dihydroimidazo[5,1-f][1,2,4]triazin-2-yl)phenyl)sulfonyl)piperidin-4-yl)-3,5-dihydroxypentyl nitrate], the “% Bound in human plasma” value [1] was 98.29%, the fraction unbound [1, 5] was 0.0171 and the “Concentration (nM) for 3-fold or 2-fold* cGMP increase vs Baseline” value [2] was 22.2* nM. For the same compound, the “Ratio Maximum cGMP increase vs Baseline” value [2] was 109.1, the “Ratio Maximum cGMP increase vs Baseline” value [3] was 183.5 and the IC50 [4] was 0.37 nM.

With `CCCc1nc(C)c2c(=O)[nH]c(-c3cc(S(=O)(=O)N4CCC(C(O)(CCO[N+](=O)[O-])CCO[N+](=O)[O-])CC4)ccc3OCC)nn12` [Compound 2h, 3-(1-((4-ethoxy-3-(5-methyl-4-oxo-7-propyl-3,4-dihydroimidazo[5,1-f][1,2,4]triazin-2-yl)phenyl)sulfonyl)piperidin-4-yl)-3-hydroxypentane-1,5-diyl dinitrate] the “% Bound in human plasma” value [1] was 99.77%, the fraction unbound [1, 5] was 0.0023 and the “Ratio Maximum cGMP increase vs Baseline” value [3] was 171.3. For the same compound, the IC50 [4] was 1 nM.

For `CCCc1nc(C)c2c(=O)[nH]c(-c3cc(S(=O)(=O)N4CCC(C(O)C(CO[N+](=O)[O-])CO[N+](=O)[O-])CC4)ccc3OCC)nn12` (stereo not drawn) [Compound 2i, 2-((1-((4-ethoxy-3-(5-methyl-4-oxo-7-propyl-3,4-dihydroimidazo[5,1-f][1,2,4]triazin-2-yl)phenyl)sulfonyl)piperidin-4-yl)(hydroxy)methyl)propane-1,3-diyl dinitrate], the “% Bound in human plasma” value [1] was 99.99%, the fraction unbound [1, 5] was 0.0001 and the “Ratio Maximum cGMP increase vs Baseline” value [3] was 932.9. For the same compound, the IC50 [4] was 1.5 nM.

In the case of `CCCc1nc(C)c2c(=O)[nH]c(-c3cc(S(=O)(=O)N4CCC(CC(CO[N+](=O)[O-])CO[N+](=O)[O-])CC4)ccc3OCC)nn12` [Compound 2m, 2-((1-((4-ethoxy-3-(5-methyl-4-oxo-7-propyl-3,4-dihydroimidazo[5,1-f][1,2,4]triazin-2-yl)phenyl)sulfonyl)piperidin-4-yl)methyl)propane-1,3-diyl dinitrate], the “% Bound in human plasma” value [1] is reported as 99.92%, the fraction unbound [1, 5] is reported as 0.0008 and the “Ratio Maximum cGMP increase vs Baseline” value [3] is reported as 262.3. The IC50 [4] was 0.44 nM.

With `CCCc1nc(C)c2c(=O)[nH]c(-c3cc(S(=O)(=O)N4CCC(CC(CO)CO[N+](=O)[O-])CC4)ccc3OCC)nn12` (stereo not drawn) [Compound 2n, 3-(1-((4-ethoxy-3-(5-methyl-4-oxo-7-propyl-3,4-dihydroimidazo[5,1-f][1,2,4]triazin-2-yl)phenyl)sulfonyl)piperidin-4-yl)-2-(hydroxymethyl)propyl nitrate] the “% Bound in human plasma” value [1] was 99.48%, the fraction unbound [1, 5] was 0.0052 and the “Ratio Maximum cGMP increase vs Baseline” value [3] was 161.0. The IC50 [4] was 0.47 nM.

In the case of `CCCc1nc(C)c2c(=O)[nH]c(-c3cc(S(=O)(=O)N4CCC(CC(C)(CO[N+](=O)[O-])CO[N+](=O)[O-])CC4)ccc3OCC)nn12` [Compound 2o, 2-((1-((4-ethoxy-3-(5-methyl-4-oxo-7-propyl-3,4-dihydroimidazo[5,1-f][1,2,4]triazin-2-yl)phenyl)sulfonyl)piperidin-4-yl)methyl)-2-methylpropane-1,3-diyl dinitrate], the “% Bound in human plasma” value [1] is reported as 99.95%, the fraction unbound [1, 5] is reported as 0.0005 and the “Concentration (nM) for 3-fold or 2-fold* cGMP increase vs Baseline” value [2] is reported as 1.9* nM. The “Ratio Maximum cGMP increase vs Baseline” value [2] was 86.9, the “Ratio Maximum cGMP increase vs Baseline” value [3] was 202.8 and the “Concentration (nM) for 3-fold cGMP or 2-fold* increase vs Baseline” value [3] was 120* nM. The IC50 [4] was 0.52 nM.

With `CCCc1nc(C)c2c(=O)[nH]c(-c3cc(S(=O)(=O)N4CCC(CC(C)(CO)CO[N+](=O)[O-])CC4)ccc3OCC)nn12` (stereo not drawn) [Compound 2p, 3-(1-((4-ethoxy-3-(5-methyl-4-oxo-7-propyl-3,4-dihydroimidazo[5,1-f][1,2,4]triazin-2-yl)phenyl)sulfonyl)piperidin-4-yl)-2-(hydroxymethyl)-2-methylpropyl nitrate] the “% Bound in human plasma” value [1] was 99.66%, the fraction unbound [1, 5] was 0.0034 and the “Concentration (nM) for 3-fold or 2-fold* cGMP increase vs Baseline” value [2] was 1.4* nM. The “Ratio Maximum cGMP increase vs Baseline” value [2] was 46.1, the “Ratio Maximum cGMP increase vs Baseline” value [3] was 204.1 and the “Concentration (nM) for 3-fold cGMP or 2-fold* increase vs Baseline” value [3] was 102* nM. For the same compound, the IC50 [4] was 0.11 nM.

`CCCc1nn(C)c2c(=O)[nH]c(-c3cc(S(=O)(=O)N4CCC(C(O)C(CO)CO)CC4)ccc3OCC)nc12` (stereo not drawn) [Compound 22, 5-(5-((4-(1,3-dihydroxy-2-(hydroxymethyl)propyl)piperidin-1-yl)sulfonyl)-2-ethoxyphenyl)-1-methyl-3-propyl-1,6-dihydro-7H-pyrazolo[4,3-d]pyrimidin-7-one] showed a fraction unbound [1, 6] of 0.036, a fraction unbound [1, 5] of 0.036 and an IC50 [4] of 8.5 nM.

`CCCc1nc(C)c2c(=O)[nH]c(-c3cc(S(=O)(=O)N4CCC(C(O)(CCO)CCO)CC4)ccc3OCC)nn12` [Compound 28, 2-(2-ethoxy-5-((4-(1,3,5-trihydroxypentan-3-yl)piperidin-1-yl)sulfonyl)phenyl)-5-methyl-7-propylimidazo[5,1-f][1,2,4]triazin-4(3H)-one] showed a fraction unbound [1, 6] of 0.069, a fraction unbound [1, 5] of 0.069 and an IC50 [4] of 0.19 nM.

For `CCCc1nc(C)c2c(=O)[nH]c(-c3cc(S(=O)(=O)N4CCC(CC(CO)CO)CC4)ccc3OCC)nn12` [Compound 43, 2-(2-ethoxy-5-(4-(3-hydroxy-2-(hydroxymethyl)propyl)piperidin-1-ylsulfonyl)phenyl)-5-methyl-7-propylimidazo[1,5-f][1,2,4]triazin-4(3H)-one], the fraction unbound [1, 6] was 0.022, the fraction unbound [1, 5] was 0.022 and the “Ratio Maximum cGMP increase vs Baseline” value [3] was 28.5. The IC50 [4] was 0.13 nM.

In the case of `CCCc1nc(C)c2c(=O)[nH]c(-c3cc(S(=O)(=O)N4CCC(CC(C)(CO)CO)CC4)ccc3OCC)nn12` [Compound 47, 2-(2-ethoxy-5-((4-(3-hydroxy-2-(hydroxymethyl)-2-methylpropyl)piperidin-1-yl)sulfonyl)phenyl)-5-methyl-7-propylimidazo[5,1-f][1,2,4]triazin-4(3H)-one], the “Ratio Maximum cGMP increase vs Baseline” value [3] is reported as 39.0 and the IC50 [4] is reported as 0.022 nM.
